In patent publication US20020111318A1, “Process for the preparation of non-hygroscopic azithromycin dihydrate” (priority 2001, published 2002):

Assays:
[1] = system: gram negative organisms; settings: Dunn and Barradell, Drugs 1996; cited from earlier work
[2] = Moisture uptake of crystals on exposure to ambient atmosphere (hygroscopicity); assay type: physicochemical
Protocol: 9-Deoxo-9a-aza-9a-homoerythromycin A (73.5 g-0.1 mole) was dissolved in 250 ml acetone. To this solution, formic acid (19 ml) followed by formaldehyde (37%, 20 ml) were added and refluxed for 24 hrs. The pH of the reaction mixture was adjusted with alkali to 10.5 and filtered to remove particles. To the filtered acetone solution equal volume of water was added to precipitate azithromycin hygroscopic monohydrate as cube shaped crystals. The crystals were filtered and dried under vacuum at 50° C. to give 65 g of azithromycin monohydrate melting at 130-131° C. having a water content of 3.42% (by Karl Fischer titration method). This sample of hygroscopic monohydrate has a characteristic solid state (KBr pellet) IR spectrum (FIG. 1) and a characteristic x-ray diffraction pattern (FIG. 4).
10 gms of hygroscopic azithromycin-monohydrate was suspended in a mixture of iso-propanol (10 ml) and water (10 ml) and stirred at ambient temperature. The transformation of cubical crystals of monohydrate form to the rhomboid form crystals of dihydrate was followed by checking the crystal habit under a microscope at every two hour interval. At 16 hours the rhomboid dihydrate crystals only were seen. The slurry was filtered and dried under vacuum at 50° C. to give 9.8 g of azithromycin dihydrate. […] It has a characteristic solid state IR spectrum (KBr pellet) (FIG. 2) and x-ray diffraction pattern (FIG. 3).

Question: For `CC[C@H]1OC(=O)[C@H](C)[C@@H](O[C@H]2C[C@@](C)(OC)[C@@H](O)[C@H](C)O2)[C@H](C)[C@@H](O[C@@H]2O[C@H](C)C[C@H](N(C)C)[C@H]2O)[C@@](C)(O)C[C@@H](C)CN(C)[C@H](C)[C@@H](O)[C@]1(C)O` [Azithromycin, 9-Deoxo-9a-aza-9a-methyl-9a-homo-Eryhromycin A], which “activity against gram negative organisms compared to Erythromycin A” value [1] is on record?
Answer: significant improvement in its activity

Question: With `CC[C@H]1OC(=O)[C@H](C)[C@@H](O[C@H]2C[C@@](C)(OC)[C@@H](O)[C@H](C)O2)[C@H](C)[C@@H](O[C@@H]2O[C@H](C)C[C@H](N(C)C)[C@H]2O)[C@](C)(O)C[C@@H](C)CN(C)[C@H](C)[C@@H](O)[C@]1(C)O` [azithromycin dihydrate, Azithromycin dihydrate] as the compound, how does the “change in moisture content on exposure to ambient atmosphere” value ([2]; dihydrate crystals dried under vacuum at 50° C., then exposed to ambient atmosphere) read?
Answer: no change in the moisture content

Question: For `CC[C@H]1OC(=O)[C@H](C)[C@@H](O[C@H]2C[C@@](C)(OC)[C@@H](O)[C@H](C)O2)[C@H](C)[C@@H](O[C@@H]2O[C@H](C)C[C@H](N(C)C)[C@H]2O)[C@](C)(O)C[C@@H](C)CN(C)[C@H](C)[C@@H](O)[C@]1(C)O` [azithromycin monohydrate, Azithromycin monohydrate], which “moisture content reached on exposure to ambient atmosphere” value ([2]; exposure to ambient atmosphere, 48 hrs, water content after drying 3.42% (Karl Fischer)) is on record?
Answer: 5.4%
